Data: US7544667B2, “Hypocholesterolemic compounds” (Lipideon Biotechnology AG, priority 2003, dated 2009)

Tested on: rabbit brush border membrane vesicles (BBMV)
Assay: inhibition of cholesterol uptake in rabbit brush border membrane vesicles (BBMV)
Format: biochemical
Conditions: applied in donor SUV (9 mol %); scavenger receptor-mediated uptake of radiolabelled cholesterol ester from donor particles into BBMV bilayer
Protocol: The compounds of the invention and ezetimibe (commercially obtained or prepared according to Wu, G. Z. et al., J. Org. Chem. 1999) together with the glucuronide (the metabolite of ezetimibe, prepared according to Vaccaro, W. D.; Davis, H. R. Bioorg. Med. Chem. Lett. 1998, 8, 313-318) as appropriate reference compounds were evaluated by well-established methods to determine their inhibition of cholesterol uptake in rabbit brush border membrane vesicles (BBMV) (Table 1). Briefly, the scavenger receptor-mediated uptake of radiolabelled cholesterol ester from the loaded donor particles into the BBMV bilayer was measured in the presence of various compounds of the invention and appropriate reference compounds (Hauser, H. et al., Biochemistry 1998, 37, 17843-17850; Werder, M. et al., Biochemistry 2001, 40, 11643-11650; Boffelli, D. et al., FEBS Lett. 1997, 411, 7-11.)

SMILES | Inhibition in (%)
O=C1[C@H](CC[C@H](O)c2ccc(F)cc2)[C@@H](c2ccc(OS(=O)(=O)CC3OC(CO)C(OC4OC(CO)C(O)C(O)C4O)C(O)C3O)cc2)N1c1ccc(F)cc1 (some centres unmarked) [XVIII] | 41 ± 4
CS(=O)(=O)Oc1ccc([C@@H]2[C@@H](CC[C@H](O)c3ccc(F)cc3)CN2c2ccc(F)cc2)cc1 [VII] | 22 ± 2
O=C1O[C@H](CC[C@H](O)c2ccc(F)cc2)[C@@H](c2ccc(O)cc2)N1c1ccc(F)cc1 [XXI] | 19 ± 2
O=S(=O)(Oc1ccc([C@@H]2[C@@H](CC[C@H](O)c3ccc(F)cc3)CN2c2ccc(F)cc2)cc1)c1ccccc1 [XV] | 19 ± 3
COC1OC(CS(=O)(=O)Oc2ccc([C@@H]3[C@@H](CC[C@H](O)c4ccc(F)cc4)CN3c3ccc(F)cc3)cc2)C(O)C(O)C1O (some centres unmarked) [IX] | 27 ± 4
O=C(O)c1cc(S(=O)(=O)Oc2ccc([C@@H]3[C@@H](CC[C@H](O)c4ccc(F)cc4)C(=O)N3c3ccc(F)cc3)cc2)ccc1O [XVI] | 21 ± 5
O=C1[C@H](CC[C@H](O)c2ccc(F)cc2)[C@@H](c2ccc(OS(=O)(=O)CC3OC(CO)C(O)C(O)C3O)cc2)N1c1ccc(F)cc1 (some centres unmarked) [X] | 15 ± 3
CS(=O)(=O)Oc1ccc([C@@H]2[C@@H](CC[C@H](O)c3ccc(F)cc3)C(=O)N2c2ccc(F)cc2)cc1 [VI] | 30 ± 4
O=C1[C@H](CC[C@H](O)c2ccc(F)cc2)[C@@H](c2ccc(O)cc2)N1c1ccc(F)cc1 [Ezetimibe, reference compound] | 16 ± 4
COC1OC(CS(=O)(=O)Oc2ccc([C@@H]3[C@@H](CC[C@H](O)c4ccc(F)cc4)C(=O)N3c3ccc(F)cc3)cc2)C(O)C(O)C1O (some centres unmarked) [IXb] | 20 ± 5
O=C1[C@H](CC[C@H](O)c2ccc(F)cc2)[C@@H](c2ccc(OS(=O)(=O)c3ccccc3)cc2)N1c1ccc(F)cc1 [XIV] | 26 ± 3
O=C1[C@H](CC[C@H](O)c2ccc(F)cc2)[C@@H](c2ccc(OCC3OC(CO)C(OC4OC(CO)C(O)C(O)C4O)C(O)C3O)cc2)N1c1ccc(F)cc1 (some centres unmarked) [XVII] | 28 ± 4
O=C1[C@H](CC[C@H](O)c2ccc(F)cc2)[C@@H](c2ccc(OCC3OC(CO)C(O)C(O)C3O)cc2)N1c1ccc(F)cc1 (some centres unmarked) [VIII] | 15 ± 3
O=C(O)[C@H]1O[C@@H](Oc2ccc([C@@H]3[C@@H](CC[C@H](O)c4ccc(F)cc4)C(=O)N3c3ccc(F)cc3)cc2)[C@H](O)[C@@H](O)[C@@H]1O [Glucuronide, reference compound] | 19 ± 4
